{"source": "patent US20240002326A1", "about": "“COMPOUNDS AND USE THEREOF IN METHODS OF TREATMENT” (The University of Queensland, priority 2016, published 2024)", "key": {"[1]": {"test": "Cytotoxicity assay (Alamar blue), HepG2", "format": "cell-based", "conditions": "human, HepG2 cells; HepG2, 24 h"}, "[2]": {"biological_target": "SOX18[109] HMG fragment (Mus musculus (Mouse), UniProt P43680)", "sequence (P43680 69-177)": "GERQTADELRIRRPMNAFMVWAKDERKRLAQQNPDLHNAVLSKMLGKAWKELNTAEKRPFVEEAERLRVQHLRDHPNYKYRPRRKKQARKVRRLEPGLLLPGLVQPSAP", "test": "FP DNA-binding competition assay, SOX18[109] HMG fragment", "conditions": "for remaining activity at 50 µM: read-out: FP bound fraction (%) 50 μM; for remaining activity at 200 µM: read-out: FP bound fraction (%) 200 μM", "method_in_brief": "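Fluorescence polarization competition using mouse SOX18[109] fragment (residues 69-177, HMG box plus flanks) at 60 nM with 5 nM 5′-FAM 40 bp Prox1 DNA in 10 mM Tris pH 8.0, 100 mM NaCl, 2-3.33% DMSO. Agitated 5 min RT, 10 min 37° C, 30 min RT, then read (ex 485/em 525 nm), triplicates.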"}, "[3]": {"biological_target": "full-length mouse SOX18 (Mus musculus (Mouse), UniProt P43680)", "sequence (P43680 whole entry)": "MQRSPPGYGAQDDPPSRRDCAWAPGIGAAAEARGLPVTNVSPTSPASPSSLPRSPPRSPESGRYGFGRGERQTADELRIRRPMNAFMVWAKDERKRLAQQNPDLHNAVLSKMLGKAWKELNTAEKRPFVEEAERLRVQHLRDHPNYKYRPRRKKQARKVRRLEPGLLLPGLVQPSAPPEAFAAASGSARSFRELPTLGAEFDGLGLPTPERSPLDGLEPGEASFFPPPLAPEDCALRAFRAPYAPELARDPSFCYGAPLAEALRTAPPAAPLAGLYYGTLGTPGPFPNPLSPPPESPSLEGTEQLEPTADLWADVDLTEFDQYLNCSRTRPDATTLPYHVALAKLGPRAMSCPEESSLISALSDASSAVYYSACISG", "test": "FP DNA-binding competition assay, full-length SOX18", "conditions": "full-length mouse SOX18, Prox1-DNA probe, read-out: FP IC50 ± SD", "protocol": "Full-length mouse SOX18. A N-terminally tagged mouse HIS-GST-SOX18 was recombinantly expressed in Sf9 cells, purified on GST resin (GE Healthcare Life Sciences, Sweden) and eluted in Tris buffer (50 mM Tris, 500 mM NaCl, 10 mM reduced glutathione, pH 8.0). cDNA clone of mouse Sox18 was PCR amplified and cloned into the pOPIN-GST vector, to generate N-terminally tagged HIS-GST-SOX18. A sequence verified construct was co-transfected with flashBACULTRA (Oxford Expression Technologies, Oxford, United Kingdom) baculovirus DNA onto Spodoptera frugiperda Sf9 cells to obtain recombinantly expressed HIS-GST-SOX18. High Five cells (BTI-TN-5B1-4) in Sf-900™ II serum-free medium were infected at cell density of 1.5×10^6 cells/mL with a multiplicity of infection (MOI) of 5 PFU/cell, and incubated at 21° C. for 144 h before harvest. The cell pellet from 100 mL of expression culture was resuspended in 30 mL of phosphate lysis buffer (50 mM sodium phosphate, 500 mM sodium chloride, 1% Triton X-100, 2 mM magnesium chloride, one tablet of cOmplete Protease Inhibitor Cocktail, pH 7.5) and sonicated on ice for 20 s. The cell lysate was centrifuged at 17,000×g for 40 min at 4° C. Supernatant was incubated with Benzonase Nuclease (Merck Millipore) for 1 h at room temperature for DNA degradation, before being mixed with 500 μL GST resin (GE Healthcare Life Sciences, Sweden) and incubated on a rotating wheel at room temperature for 1 h. The sample was centrifuged at 500×g for 1 min to remove unbound protein in the supernatant. The resin was further washed with 50 resin volumes (RV) wash buffer (50 mM sodium phosphate, 500 mM NaCl, pH 7.5), with unbound protein removed by centrifugation as above. Bound protein was eluted from the resin with 3×1 RV elution buffer (50 mM Tris, 500 mM NaCl, 10 mM reduced glutathione, pH 8.0), collecting the supernatant by centrifugation as above.\nThe DNA-binding competition assay was performed in black 384-well plates, with mouse full length SOX18, or SOX-HMG fragments. All experiments were performed using a fluorescently-labelled Prox1-DNA element. Controls consisted of free labelled DNA (low FP milli-Polarization index, mP), labelled DNA in presence of protein (negative control, high mP), and labelled DNA and protein in presence of competing excess of unlabelled DNA (positive control, low mP)\nThe DNA-binding competition assay was performed in 25 uL, in black 384-well plates, using either 30 mM HEPES (N-2-Hydroxyethylpiperazine-N′-2-Ethanesulfonic Acid) (pH 7.5, with 100 mM KCl, 40 mM NaCl, 10 mM NH4OAc, […], 2 mM MgCl2, 0.5 mM EDTA, 0.01% NP-40) for mouse full length SOX18, or Tris-NaCl (10 mM Tris pH 8.0 and 100 mM NaCl) for SOX-HMG fragments. All experiments were performed using a 40 bp double-stranded Prox1-DNA element with 5′ fluorescein amidite (FAM) label (Sigma Proligo or InVitrogen). Optimum binding levels were obtained at 200 nM of mouse full length SOX18 and 60 nM of SOX-HMG fragment, in presence of 5 nM labelled DNA. Controls consisted of free labelled DNA (low FP milli-Polarization index, mP), labelled DNA in presence of protein (negative control, high mP), and labelled DNA and protein in presence of 400 time competing excess of unlabelled DNA (positive control, low mP). Depending on compound, final DMSO concentrations ranged from 2 to 3.33% v/v. After mixing protein, DNA probe and compound, plates were sealed and briskly agitated in the dark for 5 minutes at room temperature, 10 minutes at 37° C., and 30 minutes at room temperature, before reading fluorescence polarization on a Tecan M1000Pro (λexc=485 nm, λem=525 nm). All experiments were performed in triplicates."}, "[4]": {"biological_target": "SOX18 (Mus musculus (Mouse), UniProt P43680)", "sequence (P43680 whole entry)": "as above", "test": "Cell-based luciferase SOX18-dependent transactivation (Vcam1 promoter) in COS-7", "conditions": "COS7, 24 h", "protocol": "Monkey kidney fibroblast-like cells (COS-7) were cultured at 37° C., 5% CO2 in DMEM (Life technologies, 11995) with FBS, sodium pyruvate, L-glutamine, penicillin, streptomycin, non-essential amino acids and HEPES. Cells were grown in 96-well plates to 80% confluency, and transfected with mouse plasmids pGL2 Vcam 1 promoter construct (VC1889) and pSG5 Sox18, using X-tremeGENE 9 DNA transfection reagent (Roche, 06365787001) (Hosking et al., 2004, Duong et al., 2014). After 4-6 h transfection, cells were incubated with compounds in 0.5% FBS medium for another 24 h, before lysis and luciferase assay (Perkin Elmer, 6016711)."}}, "data": [{"smiles": "COc1cc(C)cc(/C=C/c2ccc3ccccc3c2)c1C(=O)O", "note": "[Sm34, (E)-2-methoxy-4-methyl-6-(2-(naphthalen-2-yl)vinyl)benzoic acid]", "values": [{"measurement": "CC50 at 24 h", "setting": "[1]", "value": "> 100", "unit": "µM"}, {"measurement": "remaining activity at 50 µM", "setting": "[2]; 50 μM, SOX18/DNA binding", "value": "94.2 ± 1.9", "unit": "%"}, {"measurement": "remaining activity at 200 µM", "setting": "[2]; 200 μM, SOX18/DNA binding", "value": "101 ± 1.5", "unit": "%"}]}, {"smiles": "O=C(O)c1ccccc1Nc1cccc(C(F)(F)F)c1", "note": "[Flufenamic acid, reference compound]", "values": [{"measurement": "IC50", "setting": "[3]", "value": "220 ± 68.6", "unit": "µM"}, {"measurement": "In vitro efficacy in cell IC50 ± SD COS7 (Luc)", "setting": "[4]", "value": "cytotoxicity was reached before any concentration-dependent SOX18 inhibition could be observed"}]}, {"smiles": "Oc1cc(CCc2ccccc2)cc(O)c1O", "note": "[Sm40, 5-phenethylbenzene-1,2,3-triol]", "values": [{"measurement": "CC50 at 24 h", "setting": "[1]", "value": "> 100", "unit": "µM"}, {"measurement": "remaining activity at 50 µM", "setting": "[2]; 50 μM, SOX18/DNA binding", "value": "101 ± 12.1", "unit": "%"}, {"measurement": "remaining activity at 200 µM", "setting": "[2]; 200 μM, SOX18/DNA binding", "value": "92.7 ± 14.7", "unit": "%"}, {"measurement": "SOX18-DNA binding inhibition (FP, words)", "setting": "[2]; SAR library, SOX18[109]", "value": "not active"}]}, {"smiles": "CCN(CC)C(=O)c1c(O)cc(O)cc1CCc1ccc2ccccc2c1", "note": "[Sm26, N,N,diethyl-2,4-hydroxy-6-(2-(naphthalen-2-yl)ethyl)benzamide]", "values": [{"measurement": "FP bound fraction (%) 50 μM", "setting": "[2]; 50 μM, SOX18/DNA binding", "value": "98.5 ± 5.9", "unit": "%"}, {"measurement": "FP bound fraction (%) 200 μM", "setting": "[2]; 200 μM, SOX18/DNA binding", "value": "128.3 ± 17.2", "unit": "%"}]}, {"smiles": "O=C(O)c1c(O)cccc1COCCc1ccccc1", "note": "[Sm5]", "values": [{"measurement": "IC50", "setting": "[3]", "value": 1100, "unit": "µM"}, {"measurement": "IC50", "setting": "[4]; read-out: In vitro efficacy in cell IC50 ± SD COS7 (Luc)", "value": "21 ± 14", "unit": "µM"}]}]}
